Measurements from patent US10829499B2, “Tetracyclic heterocycle compounds useful as HIV integrase inhibitors” (MERCK SHARP & DOHME CORP., priority 2016, dated 2020).
Where two headings read alike, the source gives them in different places.

Tested on: HIV-1 (NL4-3 strain)
Experiment: Assay for Inhibition of HIV Replication (kinetic assay, MT4-gag-GFP reporter cell line; VIKING)
Type: cell-based
Description: This assay is a kinetic assay that employs a reporter cell line (MT4-gag-GFP) to quantify the number of new cells infected in each round of replication.
MT4-GFP cells (250,000 cells/ml) were bulk-infected with HIV-1 (NL4-3 strain) at low multiplicity of infection (MOI) in RPMI cell culture medium+10% FBS for 24 hours. Cells were then washed once in RPMI cell culture medium+10% FBS and resuspended in RPMI cell culture medium+0% or 10% or 100% normal human serum (NHS). Test compounds were serial-diluted in DMSO on an ECHO® liquid handler. The infected MT4-GFP cells were added to a 384-well poly-D-lysine coated black plate with clear bottom in which the diluted test compounds were placed. The cells were seeded at 8,000 cells per well and the final DMSO concentration was 0.4%. The infected cells (Green GFP cells) were quantified at both 24 and 48 hours post incubation using Acumen eX3. Viral reproductive ratio (R0) was determined using the number of infected cells at 48 hours divided by the number of infected cells at 24 hours. Percent viral growth inhibition was calculated by [1-(R-Rtripledrug),/(RDMSO-Rtripledrug)]*100. Compound potency IP or IC50 was determined by a 4-parameter dose response curve analysis. In vitro potency in the cell-based assay in the absence of normal human serum (NHS) and the presence of 100% NHS.

[1] = MT4-GFP cells infected with HIV-1 NL4-3, 0% normal human serum (NHS), read-out: VIKING IP50 (nM) with 0% NHS
[2] = MT4-GFP cells infected with HIV-1 NL4-3, 100% normal human serum (NHS), read-out: VIKING IP50 (nM) with 100% NHS
[3] = Human immunodeficiency virus 1, NL43, MT4-GFP cells infected with HIV-1 NL4-3, 100% normal human serum (NHS), read-out: VIKING IP50 (nM) with 100% NHS
[4] = Human immunodeficiency virus 1, NL43, MT4-GFP cells infected with HIV-1 NL4-3, 0% normal human serum (NHS), read-out: VIKING IP50 (nM) with 0% NHS

SMILES	IC50 [1] [nM]	IC50 [2] [nM]	IC50 [3] [nM]	IC50 [4] [nM]
CCNC1CC2C3OCCCN3C(=O)c3c(O)c(=O)c(C(=O)NCc4c(F)cc(F)cc4F)c1n32 (centres unmarked) [Compound 178]	16	6090	–	–
C[C@H]1CCOC2C3CCc4c(C(=O)NCc5ccc(F)cc5F)c(=O)c(O)c(n43)C(=O)N21 (single isomer, unassigned) [Compound 61]	22.1	–	8000	–
O=C(NCc1ccc(F)cc1)c1c2n3c(c(O)c1=O)C(=O)N1CCCOC1C3CC2 (single isomer, unassigned) [Compound 53]	0.963	393	–	–
CCNC1CC2C3OCCCN3C(=O)c3c(O)c(=O)c(C(=O)NCc4cccc(Cl)c4F)c1n32 (centres unmarked) [Compound 195]	12.4	25.7	–	–
O=C(NCc1c(F)cc(F)cc1F)c1c2n3c(c(O)c1=O)C(=O)N1C4CCC(C4)OC1C3CC2 (centres unmarked) [Compound 171]	2.82	74.6	–	–
C[C@H]1CNC2C3CCc4c(C(=O)NCc5cccc(Cl)c5F)c(=O)c(O)c(n43)C(=O)N21 (some centres unmarked) [Compound 90]	0.397	24.6	–	–
CC(=O)N1C2C3CCc4c(C(=O)NCc5cccc(Cl)c5F)c(=O)c(O)c(n43)C(=O)N2C[C@@H]1C (some centres unmarked) [Compound 122]	–	–	30.1	2.17
CCNC1CC2C3OCCCN3C(=O)c3c(O)c(=O)c(C(=O)NCc4cccc(Cl)c4F)c1n32 (centres unmarked) [Compound 196]	15.3	883	–	–
C[C@H]1CN2C(=O)c3c(O)c(=O)c(C(=O)NCc4cccc(Cl)c4F)c4n3C(CC4)C2N1S(C)(=O)=O (some centres unmarked) [Compound 118]	–	1280	–	8.73
O=C(NCc1cccc(Cl)c1F)c1c2n3c(c(O)c1=O)C(=O)N1CCCCOC1C3CC2 (single isomer, unassigned) [Compound 65]	0.939	6680	–	–
C[C@H]1CNC2C3CCc4c(-c5nnc(Cc6ccc(F)cc6F)s5)c(=O)c(O)c(n43)C(=O)N21 (some centres unmarked) [Compound 128]	6.69	–	361	–
CCN1C[C@H](C)N2C(=O)c3c(O)c(=O)c(C(=O)NCc4cccc(Cl)c4F)c4n3C(CC4)C12 (some centres unmarked) [Compound 112]	0.806	40.4	–	–
C[C@@H]1CN2C(=O)c3c(O)c(=O)c(C(=O)NCc4cccc(Cl)c4F)c4n3C(CC4)C2O1 (some centres unmarked) [Compound 38]	–	–	46.4	0.543
O=C(NCc1cccc(Cl)c1F)c1c2n3c(c(O)c1=O)C(=O)N1CCCO[C@@H]1[C@@H]3CC2 (single isomer, unassigned) [Compound 48]	–	–	27.3	1.31
C[C@H]1CN2C(=O)c3c(O)c(=O)c(C(=O)NCc4ccc(F)cc4F)c4n3C(CC4)C2N1 (some centres unmarked) [Compound 96]	2.04	13.8	–	–
C[C@@H]1CN2C(=O)c3c(O)c(=O)c(C(=O)NCc4cccc(Cl)c4F)c4n3C(CC4)C2O1 (single isomer, unassigned) [Compound 40]	1.84	8000	–	–
C[C@H]1CNC2C3CCc4c(-c5nnc(Cc6ccc(F)cc6F)s5)c(=O)c(O)c(n43)C(=O)N21 (some centres unmarked) [Compound 129]	15.3	283	–	–
O=C(NCc1ccc(F)cc1)c1c2n3c(c(O)c1=O)C(=O)N1CCCOC1C3CC2 (single isomer, unassigned) [Compound 52]	1.29	3380	–	–
O=C(NCc1ccc(F)c(Cl)c1)c1c2n3c(c(O)c1=O)C(=O)N1CCOC1C3CC2 (single isomer, unassigned) [Compound 23]	1.06	2190	–	–
C[C@H]1CN2C(=O)c3c(O)c(=O)c(C(=O)NCc4ccc(F)cc4F)c4n3C(CC4)C2N1 (some centres unmarked) [Compound 98]	1.48	16	–	–
CC(=O)N1C[C@H](C)N2C(=O)c3c(O)c(=O)c(C(=O)NCc4cccc(Cl)c4F)c4n3C(CC4)C12 (some centres unmarked) [Compound 121]	–	–	308	1.45
C[C@H]1CCOC2C3CCc4c(C(=O)NCc5ccc(F)cc5F)c(=O)c(O)c(n43)C(=O)N21 (single isomer, unassigned) [Compound 63]	3.09	127	–	–
C[C@H]1COC2C3CCc4c(C(=O)NCc5cccc(Cl)c5F)c(=O)c(O)c(n43)C(=O)N21 (single isomer, unassigned) [Compound 29]	–	3410	–	0.412
O=C(NCc1c(F)cccc1F)c1c2n3c(c(O)c1=O)C(=O)N1CCOC1C3CC2 (single isomer, unassigned) [Compound 17]	7.09	7940	–	–
CCNC1CC2C3OCCCN3C(=O)c3c(O)c(=O)c(C(=O)NCc4cccc(Cl)c4F)c1n32 (centres unmarked) [Compound 199]	7.12	42.9	–	–

SMILES	IC50 [1] [nM]	IC50 [2] [nM]	IC50 [3] [nM]	IC50 [4] [nM]
COC1CC2C3N(C)CCN3C(=O)c3c(O)c(=O)c(C(=O)NCc4ccc(F)cc4F)c1n32 (centres unmarked) [Compound 125]	10.3	57.7	–	–
O=C(NCc1c(F)cc(F)cc1F)c1c2n3c(c(O)c1=O)C(=O)N1CCOC1C3CC2 (single isomer, unassigned) [Compound 19]	0.539	1230	–	–
O=C(NCc1ccccc1F)c1c2n3c(c(O)c1=O)C(=O)N1CCOC1C3CC2 (single isomer, unassigned) [Compound 10]	–	226	–	0.813
COC1CC2C3OCCN3C(=O)c3c(O)c(=O)c(C(=O)NCc4ccc(F)cc4F)c1n32 (single isomer, unassigned) [Compound 77]	1.56	2160	–	–
O=C(NCc1ccccc1F)c1c2n3c(c(O)c1=O)C(=O)N1CCOC1C3CC2 (single isomer, unassigned) [Compound 12]	1.39	892	–	–
O=C(NCc1cccc(Cl)c1F)c1c2n3c(c(O)c1=O)C(=O)N1CCCCOC1C3CC2 (single isomer, unassigned) [Compound 67]	0.577	1470	–	–
O=C(NCc1ccc(F)c(Cl)c1F)c1c2n3c(c(O)c1=O)C(=O)N1C4CCC(C4)OC1C3CC2 (centres unmarked) [Compound 158]	4	16100	–	–
O=C(NCc1ccc(F)c(Cl)c1)c1c2n3c(c(O)c1=O)C(=O)N1CCOC1C3CC2 (single isomer, unassigned) [Compound 24]	0.622	–	8000	–
COC1CC2C3OCCN3C(=O)c3c(O)c(=O)c(C(=O)NCc4ccc(F)cc4F)c1n32 (single isomer, unassigned) [Compound 75]	4.99	6180	–	–
CC12OCCCN1C(=O)c1c(O)c(=O)c(C(=O)NCc3ccc(F)cc3F)c3n1C2CC3 (centres unmarked) [Compound 134]	1.29	20.5	–	–
CCNC1CC2C3OCCCN3C(=O)c3c(O)c(=O)c(C(=O)NCc4cccc(Cl)c4F)c1n32 (centres unmarked) [Compound 193]	7.89	2910	–	–
COc1cc(F)cc(F)c1CNC(=O)c1c2n3c(c(O)c1=O)C(=O)N1CCCOC1C3CC2 (racemic) [Compound 59]	–	–	8400	3.08
O=C(NCc1ccc(F)cc1)c1c2n3c(c(O)c1=O)C(=O)N1C4CCC(C4)OC1C3CC2 (centres unmarked) [Compound 160]	–	73.1	–	4.14
C[C@@H]1CN2C(=O)c3c(O)c(=O)c(C(=O)NCc4cccc(Cl)c4F)c4n3C(CC4)C2O1 (single isomer, unassigned) [Compound 39]	0.575	–	8000	–
O=C(NCc1cccc(Cl)c1F)c1c2n3c(c(O)c1=O)C(=O)N1CCOC1C3CC2 (single isomer, unassigned) [Compound 5]	0.409	2250	–	–
CCNC1CC2C3OCCCN3C(=O)c3c(O)c(=O)c(C(=O)NCc4cccc(F)c4F)c1n32 (centres unmarked) [Compound 191]	12.6	63.6	–	–
C[C@H]1CN2C(=O)c3c(O)c(=O)c(C(=O)NCc4cccc(Cl)c4F)c4n3C(CC4)C2N1 (some centres unmarked) [Compound 92]	0.67	8.12	–	–
CCNC1CC2C3OCCCN3C(=O)c3c(O)c(=O)c(C(=O)NCc4c(F)cc(F)cc4F)c1n32 (centres unmarked) [Compound 184]	5	167	–	–
CCNC1C[C@@H]2[C@H]3OC4CCC(C4)N3C(=O)c3c(O)c(=O)c(C(=O)NCc4ccc(F)cc4F)c1n32 (some centres unmarked) [Compound 175]	20.8	78.8	–	–
C[C@@H]1COC2C3CCc4c(C(=O)NCc5cccc(Cl)c5F)c(=O)c(O)c(n43)C(=O)N21 (single isomer, unassigned) [Compound 36]	–	–	1060	0.826
CCNC1CC2C3OCCCN3C(=O)c3c(O)c(=O)c(C(=O)NCc4ccc(F)cc4F)c1n32 (centres unmarked) [Compound 202]	7.73	39.4	–	–
CCCN1C[C@H](C)N2C(=O)c3c(O)c(=O)c(C(=O)NCc4cccc(Cl)c4F)c4n3C(CC4)C12 (some centres unmarked) [Compound 113]	–	–	291	3.58
CN1CCCN2C(=O)c3c(O)c(=O)c(C(=O)NCc4cccc(Cl)c4F)c4n3C(CC4)C12 (single isomer, unassigned) [Compound 86]	0.426	9.17	–	–
O=C(NCc1ccc(F)c(Cl)c1)c1c2n3c(c(O)c1=O)C(=O)N1CCOC1C3CC2 (single isomer, unassigned) [Compound 25]	0.809	2540	–	–
